From patent publication US6525001B1, “Substituted pyrimidine and pyridine herbicides” (Mid-American Commercialization Corporation, priority 1997, dated 2003)

Columns and labels:
Type in all cases: in vivo
[1] = tested on: bedstraw (Galium aparine); assay: Test B pre-/postemergence; design: key: 0 is no effect; 10 is complete control
How it was run: (§1)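 Seeds were planted and sprayed preemergence, while plants at 2 to 18 cm (1- to 4-leaf stage) were sprayed postemergence at the same time, with test chemical in a non-phytotoxic solvent mixture containing surfactant. After twelve to sixteen days in a greenhouse, injury was rated visually against untreated controls on a 0–10 scale.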

rape (Brassica napus) = assay: Test B pre-/postemergence; design: key: 0 is no effect; 10 is complete control
How it was run: as §1

[2] = tested on: bamyardgrass (Echinochloa crus-galli); assay: Test B flood test; design: key: 0 is no effect; 10 is complete control
How it was run: (§2)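 Plants were grown to the 2-leaf stage before treatment with test chemical, then held in a greenhouse for twelve to sixteen days. Injury was visually rated against untreated controls on a 0–10 scale, where 0 is no effect and 10 is complete control.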

[3] = tested on: duck salad (Heteranthera limosa); assay: Test B flood test; design: key: 0 is no effect; 10 is complete control
How it was run: as §2

rice (Oryza sativa) = assay: Test B flood test; design: key: 0 is no effect; 10 is complete control
How it was run: as §2

[4] = tested on: smallflower flatsedge (Cyperus difformis); assay: Test B flood test; design: key: 0 is no effect; 10 is complete control
How it was run: as §2

[5] = tested on: lambsquarters (Chenopodium album); assay: Test C; design: key: 0 was no effect; 100 was complete control; details: PREEMERGENCE
[6] = Rate 250 g/ha, Postemergence (so in the source)
[7] = Rate 62 g/ha, Postemergence (flood test)
[8] = Rate 125 g/ha, Postemergence, flood test
[9] = Rate 250 g/ha, Postemergence (flood test species)
[10] = Rate 125 g/ha, Postemergence section (flood test species)
[11] = Preemergence, Rate 62 g/ha, scale of 0 to 10
[12] = Rate 500 g/ha, Postemergence (flood test species)

Which “Plant response rating, Bedstraw” value ([1]; Rate 62 g/ha, Postemergence) does the source give for Cc1cnc(-n2cnc(C(F)(F)F)n2)nc1Cc1cccc(C(F)(F)F)c1 [Compound 43] here?
Its value is 9.

What about the “Bedstraw plant response rating” value ([1]; Rate 62 g/ha, Preemergence) of the same compound?
The value was 8.

What about the “Plant response rating, Bedstraw” value ([1]; Rate 125 g/ha, Postemergence) of the same compound?
Its value is 10.

And the “Bedstraw plant response rating” value ([1]; Rate 125 g/ha, Preemergence)?
Its value is 9.

And the “Plant response rating, Bedstraw” value ([1]; Rate 250 g/ha, Postemergence)?
Its value is 10.

What about the “Plant response rating, Bedstraw” value [1, 6] of the same compound?
The value was 10.

What about the “Plant response rating, Rape” value (rape (Brassica napus); Rate 62 g/ha, Postemergence) of the same compound?
Its value is 9.

What about the “Rape plant response rating” value (rape (Brassica napus); Rate 62 g/ha, Preemergence) of the same compound?
The value was 8.

And the “Rape plant response rating” value (rape (Brassica napus); Rate 125 g/ha, Postemergence)?
Its value is 10.

And the “Rape plant response rating” value (rape (Brassica napus); Rate 125 g/ha, Preemergence)?
Its value is 10.

What about the “Plant response rating, Rape” value (rape (Brassica napus); Rate 250 g/ha, Postemergence) of the same compound?
Its value is 10.

And the “Plant response rating, Rape” value (rape (Brassica napus); [6])?
Its value is 10.

What about the “Plant response rating, Barnyardgrass” value [2, 7] of the same compound?
Its value is 4.

And the “Plant response rating, Barnyardgrass” value [2, 8]?
The value was 4.

And the “Plant response rating, Barnyardgrass” value [2, 9]?
Its value is 5.

And the “Plant response rating, Ducksalad” value [3, 7]?
Its value is 8.

And the “Plant response rating, Ducksalad” value [3, 8]?
The value was 9.

What about the “Plant response rating, Ducksalad” value [3, 9] of the same compound?
Its value is 9.

And the “Plant response rating, Rice” value (rice (Oryza sativa); [7])?
Its value is 4.

And the “Rice plant response rating” value (rice (Oryza sativa); [10])?
Its value is 6.

What about the “Plant response rating, Rice” value (rice (Oryza sativa); [9]) of the same compound?
The value was 7.

What about the “Plant response rating, S. Flatsedge” value [4, 7] of the same compound?
The value was 9.

What about the “S. Flatsedge plant response rating” value [4, 10] of the same compound?
The value was 9.

What about the “Plant response rating, S. Flatsedge” value [4, 9] of the same compound?
Its value is 9.

And the “Plant response rating, Lambsquarters” value ([5]; Rate 35 g/ha)?
The value was 100.

What about the “Plant response rating, Lambsquarters” value ([5]; Rate 70 g/ha) of the same compound?
Its value is 100.

And the “Plant response rating, Lambsquarters” value ([5]; Rate 140 g/ha)?
Its value is 100.

Cc1cnc(-c2ccc(C(F)(F)F)cc2)nc1C(Cl)c1cccc(C(F)(F)F)c1 (racemic) [Compound 21] was tested. Which “Plant response rating, Bedstraw” value ([1]; Rate 62 g/ha, Postemergence) did it give?
The value was 5.

And the “Bedstraw plant response rating” value ([1]; Rate 62 g/ha, Preemergence)?
The value was 0.

What about the “Plant response rating, Bedstraw” value ([1]; Rate 125 g/ha, Postemergence) of the same compound?
Its value is 9.

And the “Bedstraw plant response rating” value ([1]; Rate 125 g/ha, Preemergence)?
The value was 1.

What about the “Plant response rating, Bedstraw” value ([1]; Rate 250 g/ha, Postemergence) of the same compound?
Its value is 9.

What about the “Plant response rating, Bedstraw” value ([1]; Rate 250 g/ha, Preemergence) of the same compound?
Its value is 8.

What about the “Plant response rating, Rape” value (rape (Brassica napus); Rate 62 g/ha, Postemergence) of the same compound?
The value was 9.

And the “Rape plant response rating” value (rape (Brassica napus); Rate 62 g/ha, Preemergence)?
The value was 2.

What about the “Plant response rating, Rape” value (rape (Brassica napus); Rate 125 g/ha, Postemergence) of the same compound?
Its value is 10.

And the “Rape plant response rating” value (rape (Brassica napus); Rate 125 g/ha, Preemergence)?
Its value is 3.

And the “Plant response rating, Rape” value (rape (Brassica napus); Rate 250 g/ha, Postemergence)?
Its value is 10.

What about the “Plant response rating, Rape” value (rape (Brassica napus); Rate 250 g/ha, Preemergence) of the same compound?
Its value is 5.

And the “Plant response rating, Barnyardgrass” value [2, 7]?
Its value is 3.

And the “Plant response rating, Barnyardgrass” value [2, 8]?
Its value is 4.

What about the “Plant response rating, Barnyardgrass” value [2, 9] of the same compound?
Its value is 4.

And the “Plant response rating, Ducksalad” value [3, 7]?
Its value is 3.

What about the “Plant response rating, Ducksalad” value [3, 8] of the same compound?
Its value is 4.

And the “Plant response rating, Ducksalad” value [3, 9]?
The value was 5.

And the “Plant response rating, Rice” value (rice (Oryza sativa); [7])?
Its value is 3.

And the “Plant response rating, Rice” value (rice (Oryza sativa); [8])?
Its value is 4.

And the “Plant response rating, Rice” value (rice (Oryza sativa); [9])?
The value was 5.

What about the “Plant response rating, S. Flatsedge” value [4, 7] of the same compound?
The value was 6.

And the “Plant response rating, S. Flatsedge” value [4, 8]?
The value was 8.

And the “Plant response rating, S. Flatsedge” value [4, 9]?
The value was 9.

What about the “Plant response rating, Lambsquarters” value ([5]; Rate 35 g/ha) of the same compound?
Its value is 0.

What about the “Plant response rating, Lambsquarters” value ([5]; Rate 70 g/ha) of the same compound?
Its value is 5.

What about the “Plant response rating, Lambsquarters” value ([5]; Rate 140 g/ha) of the same compound?
The value was 90.

Which results are given for Cc1cnc(-n2ccc(C(F)(F)F)n2)nc1C(=O)c1cccc(OC(F)(F)F)c1 [Compound 66]?
Plant response rating, Bedstraw [1, 11]: 1; Bedstraw plant response rating ([1]; Rate 62 g/ha, Postemergence): 2; Bedstraw plant response rating ([1]; Rate 125 g/ha, Postemergence): 3; Plant response rating, Bedstraw ([1]; Rate 125 g/ha, Preemergence): 2; Plant response rating, Bedstraw ([1]; Rate 250 g/ha, Postemergence): 6; Plant response rating, Bedstraw ([1]; Rate 250 g/ha, Preemergence): 3; Plant response rating, Bedstraw ([1]; Rate 500 g/ha, Postemergence): 8; Plant response rating, Bedstraw ([1]; Rate 500 g/ha, Preemergence): 8; Plant response rating, Rape (rape (Brassica napus); [11]): 0; Rape plant response rating (rape (Brassica napus); Rate 62 g/ha, Postemergence): 3; Rape plant response rating (rape (Brassica napus); Rate 125 g/ha, Postemergence): 3; Plant response rating, Rape (rape (Brassica napus); Rate 125 g/ha, Preemergence): 0; Plant response rating, Rape (rape (Brassica napus); Rate 250 g/ha, Postemergence): 7; Plant response rating, Rape (rape (Brassica napus); Rate 250 g/ha, Preemergence): 4; Plant response rating, Rape (rape (Brassica napus); Rate 500 g/ha, Postemergence): 7; Plant response rating, Rape (rape (Brassica napus); Rate 500 g/ha, Preemergence): 8; Barnyardgrass plant response rating [2, 7]: 3; Barnyardgrass plant response rating [2, 10]: 3; Plant response rating, Barnyardgrass [2, 9]: 4; Plant response rating, Barnyardgrass [2, 12]: 4; Ducksalad plant response rating [3, 7]: 2; Ducksalad plant response rating [3, 10]: 3; Plant response rating, Ducksalad [3, 9]: 5; Plant response rating, Ducksalad [3, 12]: 7; Rice plant response rating (rice (Oryza sativa); [7]): 0; Rice plant response rating (rice (Oryza sativa); [10]): 1; Plant response rating, Rice (rice (Oryza sativa); [9]): 1; Plant response rating, Rice (rice (Oryza sativa); [12]): 2; S. Flatsedge plant response rating [4, 7]: 6; S. Flatsedge plant response rating [4, 10]: 8; Plant response rating, S. Flatsedge [4, 9]: 8; Plant response rating, S. Flatsedge [4, 12]: 9; Plant response rating, Lambsquarters ([5]; Rate 35 g/ha): 0; Plant response rating, Lambsquarters ([5]; Rate 70 g/ha): 0; Plant response rating, Lambsquarters ([5]; Rate 140 g/ha): 100
